Columns and labels:
[1] = Inhibition of HCV NS3 protease by FRET assay; set-up: species or system Hepacivirus hominis
Hepatitis C virus = assay: Antiviral activity against Hepatitis C virus infected human hepatoma cells by replicon assay; assay type: functional, organism-based, Hepacivirus hominis
[2] = Cytotoxicity against human hepatoma cells; assay type: cell-based

COc1ccc2c(O[C@@H]3C[C@@H](C(=O)Nc4ccc(Br)cc4)N(C(=O)[C@@H](NC(=O)OC(C)(C)C)C(C)(C)C)C3)cc(-c3ccccc3)nc2c1
Ki [1]: 1800 nM

COc1ccc2c(O[C@@H]3C[C@@H](C(=O)Nc4ccccc4C(=O)NS(=O)(=O)c4ccc(C(F)(F)F)cc4)N(C(=O)[C@@H](NC(=O)OC(C)(C)C)C(C)(C)C)C3)cc(-c3ccccc3)nc2c1
Ki [1]: 310 nM

COc1ccc2c(O[C@@H]3C[C@@H](C(=O)Nc4cccc(C(=O)NS(=O)(=O)c5ccccc5)c4)N(C(=O)[C@@H](NC(=O)OC(C)(C)C)C(C)(C)C)C3)cc(-c3ccccc3)nc2c1
Ki [1]: 780 nM

COc1ccc2c(O[C@@H]3C[C@@H](C(=O)Nc4cc(C(F)(F)F)ccc4C(=O)NS(=O)(=O)c4ccccc4)N(C(=O)[C@@H](NC(=O)OC(C)(C)C)C(C)(C)C)C3)cc(-c3ccccc3)nc2c1
Ki [1]: 350 nM | EC50 (Hepatitis C virus): 5200 nM | CC50 [2]: 28000 nM

COc1ccc2c(O[C@@H]3C[C@@H](C(=O)Nc4ccccc4C(=O)NS(=O)(=O)C4CC4)N(C(=O)[C@@H](NC(=O)OC(C)(C)C)C(C)(C)C)C3)cc(-c3ccccc3)nc2c1
Ki [1]: 2000 nM

COc1ccc(S(=O)(=O)NC(=O)c2ccccc2NC(=O)[C@@H]2C[C@@H](Oc3cc(-c4ccccc4)nc4cc(OC)ccc34)CN2C(=O)[C@@H](NC(=O)OC(C)(C)C)C(C)(C)C)cc1
Ki [1]: 1200 nM

COc1ccc2c(O[C@@H]3C[C@@H](C(=O)Nc4ccccc4C(=O)NS(=O)(=O)c4ccccc4)N(C(=O)[C@@H](NC(=O)OC(C)(C)C)C(C)(C)C)C3)cc(-c3ccccc3)nc2c1
Ki [1]: 830 nM

COc1ccc2c(O[C@@H]3C[C@@H](C(=O)Nc4ccccc4C(=O)NS(C)(=O)=O)N(C(=O)[C@@H](NC(=O)OC(C)(C)C)C(C)(C)C)C3)cc(-c3ccccc3)nc2c1
Ki [1]: 5900 nM

COc1ccc2c(O[C@@H]3C[C@@H](C(=O)Nc4ccccc4Br)N(C(=O)[C@@H](NC(=O)OC(C)(C)C)C(C)(C)C)C3)cc(-c3ccccc3)nc2c1
Ki [1]: 3900 nM

COc1ccc2c(O[C@@H]3C[C@@H](C(=O)Nc4ccccc4CC(=O)O)N(C(=O)[C@@H](NC(=O)OC(C)(C)C)C(C)(C)C)C3)cc(-c3ccccc3)nc2c1
Ki [1]: 17000 nM

COc1ccc2c(O[C@@H]3C[C@@H](C(=O)Nc4ccc(C(=O)NS(=O)(=O)c5ccccc5)cc4)N(C(=O)[C@@H](NC(=O)OC(C)(C)C)C(C)(C)C)C3)cc(-c3ccccc3)nc2c1
Ki [1]: 1100 nM

COc1ccc2c(O[C@@H]3C[C@@H](C(=O)Nc4c(C)cccc4C(=O)NS(=O)(=O)c4ccccc4)N(C(=O)[C@@H](NC(=O)OC(C)(C)C)C(C)(C)C)C3)cc(-c3ccccc3)nc2c1
Ki [1]: 3200 nM

COc1ccc2c(O[C@@H]3C[C@@H](C(=O)Nc4ccc(C(=O)O)cc4)N(C(=O)[C@@H](NC(=O)OC(C)(C)C)C(C)(C)C)C3)cc(-c3ccccc3)nc2c1
Ki [1]: 12000 nM

COc1ccc2c(O[C@@H]3C[C@@H](C(=O)Nc4cccc(C(=O)O)c4)N(C(=O)[C@@H](NC(=O)OC(C)(C)C)C(C)(C)C)C3)cc(-c3ccccc3)nc2c1
Ki [1]: 6800 nM

COc1ccc2c(O[C@@H]3C[C@@H](C(=O)Nc4ccccc4C(=O)NS(=O)(=O)Cc4ccccc4)N(C(=O)[C@@H](NC(=O)OC(C)(C)C)C(C)(C)C)C3)cc(-c3ccccc3)nc2c1
Ki [1]: 610 nM

COc1ccc2c(O[C@@H]3C[C@@H](C(=O)Nc4ccccc4C(=O)NS(=O)(=O)c4cccs4)N(C(=O)[C@@H](NC(=O)OC(C)(C)C)C(C)(C)C)C3)cc(-c3ccccc3)nc2c1
Ki [1]: 920 nM

COc1ccc2c(O[C@@H]3C[C@@H](C(=O)Nc4ccccc4C(=O)O)N(C(=O)[C@@H](NC(=O)OC(C)(C)C)C(C)(C)C)C3)cc(-c3ccccc3)nc2c1
Ki [1]: 5000 nM

COc1ccc2c(O[C@@H]3C[C@@H](C(=O)Nc4cccc(Br)c4)N(C(=O)[C@@H](NC(=O)OC(C)(C)C)C(C)(C)C)C3)cc(-c3ccccc3)nc2c1
Ki [1]: 1400 nM

CC(C)(C)NC(=O)N[C@H](C(=O)N1C[C@H]2[C@@H]([C@H]1C(=O)NC(CC1CCC1)C(=O)C(N)=O)C2(C)C)C(C)(C)C (stereo partly drawn) [BOCEPREVIR]
Ki [1]: 14 nM

COc1ccc2c(O[C@@H]3C[C@H]4C(=O)N[C@]5(C(=O)O)C[C@H]5/C=C\CCCCC[C@H](NC(=O)OC5CCCC5)C(=O)N4C3)cc(-c3csc(NC(C)C)n3)nc2c1 [CILUPREVIR]
Ki [1]: 0.66 nM | EC50 (Hepatitis C virus): 3 nM

COc1ccc2c(O[C@@H]3C[C@@H](C(=O)O)N(C(=O)[C@@H](NC(=O)OC(C)(C)C)C(C)(C)C)C3)cc(-c3ccccc3)nc2c1 [CORBOXYLIC ACID]
Ki [1]: 66000 nM

CC(C)(C)OC(=O)N[C@H]1CCCCC/C=C\[C@@H]2C[C@@]2(C(=O)NS(=O)(=O)C2CC2)NC(=O)[C@@H]2C[C@@H](OC(=O)N3Cc4cccc(F)c4C3)CN2C1=O [DANOPREVIR]
IC50 [1]: < 0.25 nM | EC50 (Hepatitis C virus): 2.1 nM

CCC[C@H](NC(=O)[C@@H]1[C@H]2CCC[C@H]2CN1C(=O)[C@@H](NC(=O)[C@@H](NC(=O)c1cnccn1)C1CCCCC1)C(C)(C)C)C(=O)C(=O)NC1CC1 [TELAPREVIR]
Ki [1]: 39 nM | EC50 (Hepatitis C virus): 310 nM

Reference: ChEMBL document CHEMBL1143948, “Hepatitis C virus NS3 protease inhibitors comprising a novel aromatic P1 moiety” (Bioorg Med Chem, 2008)
